In general, IC50 refers to the concentration that inhibits the measured activity by half. The term CC50 denotes the concentration at which the toxic effect on the cells reaches its halfway point.

Data set [1] can be described thus: Immunosuppressive activity in BALB/c mouse splenocytes assessed as reduction in ConA-induced mouse T-lymphocytes proliferation incubated for 8 hrs by beta scintillation counting based [3H]thymidine incorporation assay. Conditions: T-cell. Type of data set: functional.
The nature of data set [2]: Cytotoxicity in BALB/c mouse Splenocyte assessed as reduction in cell viability incubated for 48 hrs by MTT assay. The class given is toxicity, cell-based. Conditions: splenocytes.
A short description of data set [3]: Selectivity index, ratio of CC50 for cytotoxicity in BALB/c mouse splenocytes to IC50 for immunosuppressive activity in BALB/c mouse splenocytes assessed as reduction in ConA-induced mouse T-lymphocytes proliferation. Conditions: read-out: Ratio CC50/IC50. The class given is toxicity, cell-based.
In the next data set the test system is B-cell line. In words: Immunosuppressive activity in BALB/c mouse splenocytes assessed as reduction in LPS-induced mouse B-lymphocytes proliferation incubated for 8 hrs by beta scintillation counting based [3H]thymidine incorporation assay. Type of data set: functional.
Data set [4] in a line: Selectivity index, ratio of CC50 for cytotoxicity in BALB/c mouse splenocytes to IC50 for immunosuppressive activity in BALB/c mouse splenocytes assessed as reduction in LPS-induced mouse B-lymphocytes proliferation. Conditions: read-out: Ratio CC50/IC50. Type of data set: toxicity, cell-based.

`CC1=C(O)C(=O)C[C@@H]2[C@@]3(C)CC[C@](C)(C(=O)O)C[C@@H]3CC[C@]12C`: the IC50 came to 3.41 µM in data set [1] and 3.05 µM with B-cell line (read-out: IC50). Also, the CC50 at 48 h in data set [2] came out at 6.46 µM. Moreover, the results for the selectivity ratio in data set [3] and in data set [4] were 1.9 and 2.1, respectively.

Turning to `C[C@@H]1C(=O)CC[C@@H]2[C@@]3(C)CC[C@](C)([C@@H](O)CO)C[C@@H]3CC[C@]21C`, the IC50 in data set [1] came to 23.9 µM; in the data set on B-cell line (read-out: IC50), 10.2 µM. In addition, in data set [2], the CC50 at 48 h was 24.2 µM. Further, the selectivity ratio came to 1 in data set [3] and 2.4 in data set [4].

`CC1=CC(=O)C[C@@H]2[C@@]3(C)CC[C@](C)(O)C[C@@H]3CC[C@@]12C`: the IC50 in data set [1] was determined as 3.11 µM; in the data set on B-cell line (read-out: IC50), 2.24 µM. In data set [2], the CC50 at 48 h turned out to be 13.2 µM. The selectivity ratio in data set [3] came to 4.2; in data set [4] it was 5.9.

As for `C/C=C/C[C@@H](C)[C@@H](O)[C@H]1C(=O)N[C@@H](CC)C(=O)N(C)CC(=O)N(C)[C@@H](CC(C)C)C(=O)N[C@@H](C(C)C)C(=O)N(C)[C@@H](CC(C)C)C(=O)N[C@@H](C)C(=O)N[C@H](C)C(=O)N(C)[C@@H](CC(C)C)C(=O)N(C)[C@@H](CC(C)C)C(=O)N(C)[C@@H](C(C)C)C(=O)N1C` [CYCLOSPORINE], in the data set with B-cell line, the IC50 worked out at 0.74 µM.

(Values after ChEMBL document CHEMBL5120889, “Dolabrane-Type Diterpenoids with Immunosuppressive Activity from Koilodepas hainanense” (J Nat Prod, 2022).)
